As usually defined, the IC50 is the point on the concentration scale where inhibition reaches its midpoint.

Numbered stars: 1 amine (or outer) side, 2 acyl side, 3 side chain; on linkers, the order of the positions; unused ones are H or OH. Bridge positions count the residues as written; N and C are the ends. Square brackets hold non-standard residues; d marks the D form. Peptide text beside a SMILES is read from it. ξ: configuration not given here. Nle(4-yne,6-yl) = O=C([C@H](CC#CC[*:3])N[*:1])[*:2]; ξIle = CC[C@H](C)C(N)C(=O)O A value given as a limit tells only on which side of the number the result lay.

This test concerns the target GTPase KRas (Homo sapiens, UniProt P01116, G12V). Kind of test: Inhibition of alexa fluor 647-labeled kinase tracer 314 binding to biotinylated-KRAS G12V mutant (unknown origin) measured after 60 mins by HTRF competition binding assay. To be noted: read-out: IC50. On the technique in general: Time-resolved FRET reads energy transfer from a long-lived donor to a nearby acceptor.
For `CC(C)C[C@H](NC(=O)[C@@H]1COCc2cnnn2CCCCC(=O)NCC(=O)N2CCC[C@H]2C(=O)N[C@@H](c2ccccc2)C(=O)N1)C(N)=O`, the half-inhibitory concentration (IC50) is greater than 100 µM.

With `CC[C@H](C)C1NC(=O)[C@@H]2CCCN2C(=O)[C@H](Cc2ccc(O)cc2)NC(=O)[C@@H](NC(=O)[C@H](CC(=O)O)NC(=O)[C@H](Cc2ccc(O)cc2)NC(=O)[C@H](Cc2ccccc2)NC(=O)[C@H](Cc2c[nH]cn2)NC(=O)[C@@H](N)Cc2ccccc2)CC#CCSC[C@@H](C(=O)N[C@@H](CC(C)C)C(=O)N[C@H](C(=O)N2CCC[C@H]2C(=O)N2CCC[C@H]2C(N)=O)[C@@H](C)CC)NC1=O` (some centres not stated) (H-FHFYD[Nle(4-yne,6-yl)]YP[ξIle]CLIPP-NH2; thioether 6-10), the IC50 was 0.023 µM.

On to `CC(C)C[C@H](NC(=O)[C@@H]1COCc2cnnn2CCCCC(=O)NCC(=O)N2CCC[C@H]2C(=O)N[C@@H](Cc2ccccc2)C(=O)N1)C(N)=O`, for which the IC50 was greater than 38 µM.

Consider `CC(C)C[C@H](NC(=O)[C@H]1CCCc2cnnn2CCCCC(=O)NCC(=O)N2CCC[C@H]2C(=O)N[C@@H](Cc2cccc3ccccc23)C(=O)N1)C(N)=O`, for which the IC50 is 19 µM.

On to `CC(C)C[C@H](NC(=O)[C@@H]1COCc2cnnn2CCCCC(=O)NCC(=O)N2CCC[C@H]2C(=O)N[C@@H](Cc2ccccc2Cl)C(=O)N1)C(N)=O`, for which the IC50 is greater than 100 µM.

In the case of `CC(C)C[C@H](NC(=O)[C@@H]1COCc2cnnn2CCCCC(=O)N2CCC[C@H]2C(=O)N[C@@H](Cc2cccc3ccccc23)C(=O)N1)C(N)=O`, the IC50 worked out at 48 µM.

With `CC(=O)N[C@@H](CC(=O)O)C(=O)N[C@H]1CCCn2nncc2COC[C@@H](C(=O)N[C@@H](CC(C)C)C(=O)N[C@@H](C)C(=O)N2CCC[C@H]2C(N)=O)NC(=O)[C@H](Cc2cccc3ccccc23)NC(=O)[C@@H]2CCCN2C(=O)CNC1=O`, the IC50 was determined as 40 µM.

As for `CC(C)C[C@H](NC(=O)[C@@H]1COCc2cnnn2CCCCC(=O)NCC(=O)N2CC[C@@H](O)[C@H]2C(=O)N[C@@H](Cc2cccc3ccccc23)C(=O)N1)C(N)=O`, the IC50 turned out to be 70 µM.

Consider `CC(C)C[C@H](NC(=O)[C@H]1Cn2nncc2CCCC(=O)NCC(=O)N2CCC[C@H]2C(=O)N[C@@H](Cc2cccc3ccccc23)C(=O)N1)C(N)=O`, for which the IC50 was determined as 31 µM.

Regarding `CC(C)C[C@H](NC(=O)[C@@H]1COCc2cnnn2CCCCCCCC(=O)N2CCC[C@H]2C(=O)N[C@@H](Cc2cccc3ccccc23)C(=O)N1)C(N)=O`, the IC50 came to 81 µM.

As for `CC(C)C[C@H](NC(=O)[C@@H]1COCc2cnnn2CCCCC(=O)NCC(=O)N2Cc3ccccc3C[C@H]2C(=O)N[C@@H](Cc2cccc3ccccc23)C(=O)N1)C(N)=O`, the IC50 was found to be 5.8 µM.

On to `CC(C)C[C@H](NC(=O)[C@@H]1COCc2cnnn2CCCCC(=O)N[C@@H](CC(=O)O)C(=O)N2CCC[C@H]2C(=O)N[C@@H](Cc2cccc3ccccc23)C(=O)N1)C(N)=O`, for which the IC50 came to 66 µM.

For the compound `CC(C)C[C@H](NC(=O)[C@@H]1COCc2cnnn2CCCCCC(=O)N2CCC[C@H]2C(=O)N[C@@H](Cc2cccc3ccccc23)C(=O)N1)C(N)=O`, the half-inhibitory concentration (IC50) was determined as 12 µM.

For the compound `CC(C)C[C@H](NC(=O)[C@@H]1COCc2cnnn2CCCCC(=O)NCC(=O)N(C)[C@@H](C(C)C)C(=O)N[C@@H](Cc2cccc3ccccc23)C(=O)N1)C(N)=O`, the IC50 was found to be 100 µM.

Regarding `NC(=O)[C@H](CC1CCCCC1)NC(=O)[C@@H]1COCc2cnnn2CCCCC(=O)NCC(=O)N2CCC[C@H]2C(=O)N[C@@H](Cc2cccc3ccccc23)C(=O)N1`, the IC50 came to 100 µM.

Consider `CC(C)C[C@H](NC(=O)[C@@H]1COCc2cnnn2CCCCCCCCCC(=O)N2CCC[C@H]2C(=O)N[C@@H](Cc2cccc3ccccc23)C(=O)N1)C(N)=O`, for which the IC50 was found to be 28 µM.

With `CC(C)C[C@@H](C(N)=O)N(C)C(=O)[C@@H]1COCc2cnnn2CCCCC(=O)NCC(=O)N2CCC[C@H]2C(=O)N[C@@H](Cc2cccc3ccccc23)C(=O)N1`, the IC50 is 26 µM.

The values above are taken from ChEMBL document CHEMBL5055671, “Targeting a Novel KRAS Binding Site: Application of One-Component Stapling of Small (5-6-mer) Peptides” (J Med Chem, 2021).
